Experimental findings from PubChem BioAssay AID256 (DTP/NCI, 2004) are described below.

The subject of the experiment is CD2F1 mice, L1210 leukemia ip, survival T/C. The experiment is described as follows: NCI In Vivo Anticancer Drug Screen. Data for tumor model L1210 Leukemia (intraperitoneal) in CD2F1 (CDF1) mice. As to conditions: higher = longer survival. In short, it runs like this: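 Implant tumor; dose compound or vehicle; measure endpoint in both groups; report treated divided by control.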

Setting [1] is: endpoint: mean survival time, dose: 25.0 mg/kg/injection, schedule: Q01DX009 (ip), vehicle: saline.
Where [2] appears, read: endpoint: mean survival time, dose: 50.0 mg/kg/injection, schedule: Q01DX009 (ip), vehicle: saline.
Where [3] appears, read: endpoint: mean survival time, dose: 100.0 mg/kg/injection, schedule: Q04DX002 (ip), vehicle: saline with Tween-80.
The mark [4] stands for this setting: endpoint: mean survival time, dose: 200.0 mg/kg/injection, schedule: Q04DX002 (ip), vehicle: saline with Tween-80.
Where [5] appears, read: endpoint: mean survival time, dose: 400.0 mg/kg/injection, schedule: Q04DX002 (ip), vehicle: saline with Tween-80.
The mark [6] stands for this setting: endpoint: mean survival time, dose: 100.0 mg/kg/injection, schedule: Q01DX001 (ip), vehicle: saline with Tween-80.
The mark [7] stands for this setting: endpoint: mean survival time, dose: 200.0 mg/kg/injection, schedule: Q01DX001 (ip), vehicle: saline with Tween-80.
The mark [8] stands for this setting: endpoint: mean survival time, dose: 25.0 mg/kg/injection, schedule: Q01DX009 (ip), vehicle: saline with Tween-80.
Where [9] appears, read: endpoint: mean survival time, dose: 50.0 mg/kg/injection, schedule: Q01DX009 (ip), vehicle: saline with Tween-80.
[10] abbreviates: endpoint: mean survival time, dose: 100.0 mg/kg/injection, schedule: Q01DX009 (ip), vehicle: saline with Tween-80.
Setting [11] is: endpoint: mean survival time, dose: 200.0 mg/kg/injection, schedule: Q01DX009 (ip), vehicle: saline with Tween-80.

Values joined by “and” are separate entries in the source; they are usually repeats but may differ in a detail not shown here. Equal values may be shown once. Inconclusive results and toxic doses are left out. Residues, ends and D or L forms follow the SMILES beside them. *: point of attachment. Trt = c1ccc(C(c2ccccc2)(c2ccccc2)*)cc1; Cbz = O=C(OCc1ccccc1)*; Bn = c1ccc(C*)cc1; βAla = NCCC(=O)O

On to `CS(C)(=O)=C/C(=C\C(=O)c1ccccc1)c1ccccc1`, for which the T/C by setting is: under setting [1], 94 % of control; under setting [2], 94 % of control; (endpoint: mean survival time, dose: 100.0 mg/kg/injection, schedule: Q01DX009 (ip), vehicle: saline) 94 % of control.

As for `CC(/C=N\N=C(N)N)=N/N=C(N)N`, the T/C (endpoint: median survival time, dose: 5.0 mg/kg/injection, schedule: Q01DX009 (ip), vehicle: saline) is 94 % of control.

As to `COC(=N)C/C=C/CC(=N)OC`, the T/C was 98 % of control (endpoint: mean survival time, dose: 100.0 mg/kg/injection, schedule: Q04DX003 (ip), vehicle: saline with Tween-80); 95 % of control (endpoint: mean survival time, dose: 200.0 mg/kg/injection, schedule: Q04DX003 (ip), vehicle: saline with Tween-80); 98 % of control (endpoint: mean survival time, dose: 400.0 mg/kg/injection, schedule: Q04DX003 (ip), vehicle: saline with Tween-80).

Consider `CN(C)C(C)(C)P(=O)(O)O`, for which the T/C is 98 % of control (endpoint: mean survival time, dose: 100.0 mg/kg/injection, schedule: Q04DX003 (ip), vehicle: saline); 96 % of control (endpoint: mean survival time, dose: 200.0 mg/kg/injection, schedule: Q04DX003 (ip), vehicle: saline); 96 % of control (endpoint: mean survival time, dose: 400.0 mg/kg/injection, schedule: Q04DX003 (ip), vehicle: saline).

With `COC(=O)C(CSC(c1ccccc1)(c1ccccc1)c1ccccc1)NC(=O)C(CSCc1ccccc1)NC(=O)CCNC(=O)OCc1ccccc1` (configuration not stated) ({Cbz-βAla}-Cys(Bn)-Cys(Trt)-OMe; configuration not given here), the T/C reads like this: (endpoint: median survival time, dose: 12.5 mg/kg/injection, schedule: Q01DX009 (ip), vehicle: Klucel (hydroxypropylcellulose) (HPC)) 101 % of control; (endpoint: median survival time, dose: 25.0 mg/kg/injection, schedule: Q01DX009 (ip), vehicle: Klucel (hydroxypropylcellulose) (HPC)) 101 % of control; (endpoint: median survival time, dose: 50.0 mg/kg/injection, schedule: Q01DX009 (ip), vehicle: Klucel (hydroxypropylcellulose) (HPC)) 101 % of control; (endpoint: median survival time, dose: 100.0 mg/kg/injection, schedule: Q01DX009 (ip), vehicle: Klucel (hydroxypropylcellulose) (HPC)) 108 % of control; (endpoint: median survival time, dose: 200.0 mg/kg/injection, schedule: Q01DX009 (ip), vehicle: Klucel (hydroxypropylcellulose) (HPC)) 103 % of control.

Regarding `COc1cc(C2=N/C(=C\c3ccc(C(C)C)cc3)C(=O)O2)cc(OC)c1OC`, the T/C is 90 % of control under setting [3], 90 % of control under setting [4] and 94 % of control under setting [5].

Regarding `Clc1ccc(C[n+]2ccccc2)cc1Cl`, the T/C reads like this: (endpoint: mean survival time, dose: 5.0 mg/kg/injection, schedule: Q01DX009 (ip), vehicle: saline) 98 % of control; (endpoint: mean survival time, dose: 10.0 mg/kg/injection, schedule: Q01DX009 (ip), vehicle: saline) 104 % of control; (endpoint: mean survival time, dose: 10.0 mg/kg/injection, schedule: Q04DX003 (ip), vehicle: saline) 100 % of control; (endpoint: mean survival time, dose: 20.0 mg/kg/injection, schedule: Q01DX009 (ip), vehicle: saline) 98 % of control; (endpoint: mean survival time, dose: 20.0 mg/kg/injection, schedule: Q04DX003 (ip), vehicle: saline) 94 % of control.

In the case of `Cc1ncc(CO)c(C2NOCc3ccc(Cl)cc32)c1O` (configuration not stated), the T/C runs as follows: (endpoint: mean survival time, dose: 25.0 mg/kg/injection, schedule: Q01DX009 (ip), vehicle: Klucel (hydroxypropylcellulose) (HPC)) 96 % of control; (endpoint: mean survival time, dose: 50.0 mg/kg/injection, schedule: Q01DX009 (ip), vehicle: Klucel (hydroxypropylcellulose) (HPC)) 98 % of control.

For `O=CNO`, the T/C by setting is: under setting [6], 108 % of control; under setting [7], 104 % of control; (endpoint: mean survival time, dose: 400.0 mg/kg/injection, schedule: Q01DX001 (ip), vehicle: saline with Tween-80) 104 % of control.

Turning to `CSc1ccc(NC(=O)Nc2nccs2)cc1`, the T/C is, setting by setting: (endpoint: mean survival time, dose: 100.0 mg/kg/injection, schedule: Q01DX009 (ip), vehicle: saline sonified) 103 % of control; (endpoint: mean survival time, dose: 200.0 mg/kg/injection, schedule: Q01DX009 (ip), vehicle: saline sonified) 106 % of control; (endpoint: mean survival time, dose: 400.0 mg/kg/injection, schedule: Q01DX009 (ip), vehicle: saline sonified) 100 % of control.

On to `O=C(Nc1ccc(C2=NCCN2)cc1)c1ccc(C(=O)Nc2ccc(C3=NCCN3)cc2)cc1`, for which the T/C runs as follows: (endpoint: mean survival time, dose: 1.25 mg/kg/injection, schedule: Q01DX008 (iv), vehicle: other) 103 % of control; (endpoint: mean survival time, dose: 2.5 mg/kg/injection, schedule: Q01DX008 (iv), vehicle: other) 103 % of control; (endpoint: mean survival time, dose: 5.0 mg/kg/injection, schedule: Q01DX008 (iv), vehicle: other) 108 % of control; (endpoint: mean survival time, dose: 50.0 mg/kg/injection, schedule: Q04DX003 (ip), vehicle: water) 112 % of control; (endpoint: mean survival time, dose: 100.0 mg/kg/injection, schedule: Q01DX007 (ip), vehicle: water) 153 % of control; (endpoint: mean survival time, dose: 100.0 mg/kg/injection, schedule: Q04DX003 (ip), vehicle: water) 118 % of control. Moreover, the T/C by setting is: (endpoint: mean survival time, dose: 200.0 mg/kg/injection, schedule: Q01DX007 (ip), vehicle: water) 170 % of control; (endpoint: mean survival time, dose: 200.0 mg/kg/injection, schedule: Q01DX009 (ip), vehicle: water) 186 % of control.

Turning to `Oc1cc2ccccc2c(-c2c(O)c(O)cc3ccccc23)c1O`, the T/C by setting is: (endpoint: mean survival time, dose: 12.5 mg/kg/injection, schedule: Q01DX009 (ip), vehicle: saline with Tween-80) 103 % of control; under setting [8], 100 % of control and 103 % of control; under setting [9], 103 % of control and 105 % of control; under setting [10], 100 % of control and 109 % of control; under setting [11], 96 % of control.

In the case of `O=c1c(O)c(-c2cc(O)c(O)c(O)c2)oc2cc(O)cc(O)c12`, the T/C by setting is: under setting [8], 98 % of control; under setting [9], 91 % of control; under setting [10], 93 % of control; under setting [11], 95 % of control.

For the compound `COc1ccccc1NC(=O)Oc1ccc(SC)c(C)c1`, the T/C is 100 % of control under setting [3], 95 % of control under setting [4] and 95 % of control under setting [5].

Consider `COc1ccccc1NC(N)=O`, for which the T/C under setting [10] is 95 % of control; the T/C under setting [11] was 86 % of control; the T/C (endpoint: mean survival time, dose: 400.0 mg/kg/injection, schedule: Q01DX009 (ip), vehicle: saline with Tween-80) is 95 % of control.

For `COc1cc(C)c2c(c1C=O)Oc1c(c(C)c(O)c3c1C(O)OC3=O)OC2=O` (configuration not stated), the T/C runs as follows: (endpoint: mean survival time, dose: 3.12 mg/kg/injection, schedule: Q01DX009 (ip), vehicle: saline) 94 % of control; (endpoint: mean survival time, dose: 6.25 mg/kg/injection, schedule: Q01DX009 (ip), vehicle: saline) 92 % of control; (endpoint: mean survival time, dose: 12.5 mg/kg/injection, schedule: Q01DX009 (ip), vehicle: saline) 100 % of control; under setting [1], 92 % of control; under setting [2], 97 % of control.

Regarding `CCN(Cc1cnc2nc(N)nc(N)c2n1)c1c(Cl)cc(C(=O)NC(CCC(=O)O)C(=O)O)cc1Cl` (configuration not stated), the T/C (endpoint: mean survival time, dose: 3.12 mg/kg/injection, schedule: Q01DX009 (ip), vehicle: sodium bicarbonate) was 117 % of control; the T/C (endpoint: mean survival time, dose: 6.25 mg/kg/injection, schedule: Q01DX009 (ip), vehicle: sodium bicarbonate) was 117 % of control; the T/C (endpoint: mean survival time, dose: 100.0 mg/kg/injection, schedule: Q01DX009 (ip), vehicle: sodium bicarbonate) was 170 % of control.

On to `NC1CCCCC1N.O=S(=O)([O-])c1ccccc1S(=O)(=O)[O-].[Pt+4]`, for which the T/C by setting is: (endpoint: median survival time, dose: 1.56 mg/kg/injection, schedule: Q04DX003 (ip), vehicle: saline) 105 % of control; (endpoint: median survival time, dose: 6.25 mg/kg/injection, schedule: Q04DX003 (ip), vehicle: saline) 212 % of control and 216 % of control; (endpoint: median survival time, dose: 12.5 mg/kg/injection, schedule: Q04DX003 (ip), vehicle: saline) 212 % of control and 361 % of control; (endpoint: median survival time, dose: 25.0 mg/kg/injection, schedule: Q04DX003 (ip), vehicle: saline) 244 % of control and 375 % of control; (endpoint: median survival time, dose: 50.0 mg/kg/injection, schedule: Q04DX003 (ip), vehicle: saline) 180 % of control.

Regarding `Cn1c(C(O)c2cccnc2)c(CN2CCCCC2)c2ccccc21` (configuration not stated), the T/C under setting [6] is 97 % of control and the T/C under setting [7] was 94 % of control.

As for `CCOC(=O)C1(C(=O)OCC)CCC(O)N1C(=O)c1ccccc1[N+](=O)[O-]` (configuration not stated), the T/C runs as follows: (endpoint: mean survival time, dose: 100.0 mg/kg/injection, schedule: Q01DX001 (ip), vehicle: Klucel (hydroxypropylcellulose) (HPC)) 100 % of control; (endpoint: mean survival time, dose: 200.0 mg/kg/injection, schedule: Q01DX001 (ip), vehicle: Klucel (hydroxypropylcellulose) (HPC)) 96 % of control; (endpoint: mean survival time, dose: 400.0 mg/kg/injection, schedule: Q01DX001 (ip), vehicle: Klucel (hydroxypropylcellulose) (HPC)) 92 % of control.
